# Laboratory results taken from US8791148B2, “Substituted benzimidazolone derivatives, medicaments comprising them and their use” (AbbVie Deutschland GmbH & Co. KG, priority 2006, dated 2014).
# Molecular target: T1, human vasopressin V1b receptor (Homo sapiens, UniProt P47901)
# T1 construct: expressed in transfected cells; host or cells: CHO-K1 (cell line hV1b-3H2_CHO), membrane preparation
# T1 sequence (P47901 1-424): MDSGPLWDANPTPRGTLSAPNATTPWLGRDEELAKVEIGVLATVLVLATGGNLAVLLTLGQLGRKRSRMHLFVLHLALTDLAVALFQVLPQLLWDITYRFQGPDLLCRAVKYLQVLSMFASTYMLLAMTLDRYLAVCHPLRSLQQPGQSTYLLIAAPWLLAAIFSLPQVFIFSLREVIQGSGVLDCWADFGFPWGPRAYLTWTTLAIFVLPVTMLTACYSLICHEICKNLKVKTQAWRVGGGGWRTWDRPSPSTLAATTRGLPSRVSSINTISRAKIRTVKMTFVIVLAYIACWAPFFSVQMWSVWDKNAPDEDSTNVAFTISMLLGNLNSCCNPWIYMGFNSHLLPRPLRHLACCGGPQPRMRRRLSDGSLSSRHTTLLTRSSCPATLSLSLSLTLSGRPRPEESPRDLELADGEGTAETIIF
# Experiment: Vasopressin V1b receptor binding assay
# Details: membranes from CHO-K1 cells with stably expressed human V1b receptors; displacement of 1.5 nM 3H-AVP; read-out: V1b receptor affinity (affinity constant Ki)
# In short: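 Ki values come from nonlinear regression of triplicate scintillation counts after filtration. Test compound (2% DMSO in the mixture) and radioligand were incubated 60 min at room temperature with human V1b membranes in pH 7.4 Tris buffer with 10 mM MgCl2 and 0.1% BSA. Nonspecific binding was set with 1 uM AVP.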
row,Compound,Ki
1,"COc1ccc(S(=O)(=O)n2c(=O)n(C(C(=O)NCc3cccnc3)c3ccccc3)c3cc(Cl)ccc32)cc1 (stereo not shown) [Example 112, 2-[6-Chloro-3-(4-methoxybenzenesulfonyl)-2-oxo-2,3-dihydrobenzimidazol-1-yl]-2-phenyl-N-pyridin-3-ylmethylacetamide]",500 to 10000 nM
2,"COc1ccc(S(=O)(=O)n2c(=O)n(C(C(=O)N3CCN(c4ccncc4)CC3)c3ccccc3)c3cc(Cl)c(Cl)cc32)c(OC)c1 (stereo not shown) [Example 59, 5,6-Dichloro-1-(2,4-dimethoxybenzenesulfonyl)-3-[2-oxo-1-phenyl-2-(4-pyridin-4-ylpiperazin-1-yl)ethyl]-1,3-dihydrobenzoimidaz]",500 to 10000 nM
3,"O=C(C(c1ccccc1)n1c(=O)n(S(=O)(=O)c2ccccc2)c2ccc(Cl)cc21)N1CCN(c2ccncc2)CC1 (stereo not shown) [Example 47, 1-Benzenesulfonyl-5-chloro-3-[2-oxo-1-phenyl-2-(4-pyridin-4-ylpiperazin-1-yl)ethyl]-1,3-dihydrobenzimidazol-2-one]",100 to 500 nM
4,"COc1ccc(S(=O)(=O)n2c(=O)n(C(C(=O)N3CCC3)c3ccccc3)c3cc(Cl)ccc32)cc1 (stereo not shown) [Example 84, 3-(2-Azetidin-1-yl-2-oxo-1-phenylethyl)-5-chloro-1-(4-methoxybenzenesulfonyl)-1,3-dihydrobenzimidazol-2-one]",500 to 10000 nM
5,"N#Cc1ccc(S(=O)(=O)n2c(=O)n(C(C(=O)N3CCN(c4ccncc4)CC3)c3ccccc3)c3cc(C#N)ccc32)cc1 (stereo not shown) [Example 51, 1-(4-Cyanobenzenesulfonyl)-2-oxo-3-[2-oxo-1-phenyl-2-(4-pyridin-4-ylpiperazin-1-yl)ethyl]-2,3-dihydro-1H-benzimidazole-5-carbonitrile]",500 to 10000 nM
6,"COc1ccc(S(=O)(=O)n2c(=O)n(C(C(=O)N3CCN(C4CCN(C)CC4)CC3)c3ccccc3OC)c3cc(Cl)ccc32)c(OC)c1 (stereo not shown) [Example 8, 5-Chloro-1-(2,4-dimethoxybenzenesulfonyl)-3-{1-(2-methoxyphenyl)-2-[4-(1-methylpiperidin-4-yl)piperazin-1-yl]-2-oxoethyl}-1,3-dihydrobenzimidazol-2-one]",500 to 10000 nM
7,"COc1ccc(S(=O)(=O)n2c(=O)n(C(C(=O)NCCN3CCNCC3)c3ccccc3)c3cc(Cl)ccc32)cc1 (stereo not shown) [Example 131, 2-[6-Chloro-3-(4-methoxybenzenesulfonyl)-2-oxo-2,3-dihydrobenzimidazol-1-yl]-2-phenyl-N-(2-piperazin-1-ylethyl)acetamide]",100 to 500 nM
8,"CCCN1CCN(C2CCN(C(=O)C(c3ccccc3)n3c(=O)n(S(=O)(=O)c4ccc(OC)cc4)c4ccc(C#N)cc43)C2)CC1 (stereo not shown) [Example 52, 1-(4-Methoxybenzenesulfonyl)-2-oxo-3-{2-oxo-1-phenyl-2-[3-(4-propylpiperazin-1-yl)-pyrrolidin-1-yl]-ethyl}-2,3-dihydro-1H-benzimidazole-5-carbonitrile]",< 100 nM
9,"COc1ccc(S(=O)(=O)n2c(=O)n(C(C(=O)N3CC[C@@H](N)C3)c3ccccc3)c3cc(C#N)ccc32)cc1 (stereo partly drawn) [Example 172, 3-[2-((R)-3-Aminopyrrolidin-1-yl)-2-oxo-1-phenylethyl]-1-(4-methoxybenzenesulfonyl)-2-oxo-2,3-dihydro-1H-benzimidazole-5-carbonitrile]",500 to 10000 nM
10,"COc1ccc(S(=O)(=O)n2c(=O)n(C(C(=O)N3CCC(N4CCN(C)CC4)CC3)c3ccccc3)c3cc(Cl)ccc32)c(OC)c1 (stereo not shown) [Example 63, 5-Chloro-1-(2,4-dimethoxybenzenesulfonyl)-3-{2-[4-(4-methylpiperazin-1-yl)piperidin-1-yl]-2-oxo-1-phenylethyl}-1,3-dihydrobenzimidazol-2-one]",100 to 500 nM
11,"COc1ccc(S(=O)(=O)n2c(=O)n(C(C(=O)N3CCCCC3)c3ccccc3)c3cc(Cl)ccc32)cc1 (stereo not shown) [Example 101, 5-Chloro-1-(4-methoxybenzenesulfonyl)-3-(2-oxo-1-phenyl-2-piperidin-1-ylethyl)-1,3-dihydrobenzimidazol-2-one]",500 to 10000 nM
12,"CCCN1CCN([C@H]2CCN(C(=O)C(c3ccccc3)n3c(=O)n(S(=O)(=O)c4cccs4)c4ccc(C#N)cc43)C2)CC1 (stereo partly drawn) [Example 201, 2-oxo-3-{2-oxo-1-phenyl-2-[(S)-3-(4-propylpiperazin-1-yl)pyrrolidin-1-yl]-ethyl}-1-(thiophene-2-sulfonyl)-2,3-dihydro-1H-benzimidazole-5-carbonitrile]",100 to 500 nM
13,"COc1ccc(S(=O)(=O)n2c(=O)n(C(C(=O)N3CC[C@@H](N4CCN(Cc5ccccc5)CC4)C3)c3ccccc3)c3cc(C#N)ccc32)cc1 (stereo partly drawn) [Example 144, 3-{2-[(R)-3-(4-Benzylpiperazin-1-yl)-pyrrolidin-1-yl]-2-oxo-1-phenylethyl}-1-(4-methoxybenzenesulfonyl)-2-oxo-2,3-dihydro-1H-benzimidazole-5-carbonitrile]",500 to 10000 nM
14,"COc1ccc(S(=O)(=O)n2c(=O)n(C(C(=O)N3CCC[C@@H](NC4CCN(C)CC4)C3)c3ccccc3)c3cc(C#N)ccc32)cc1 (stereo partly drawn) [Example 248, 1-(4-Methoxy-benzenesulfonyl)-3-{2-[(R)-3-(1-methyl-piperidin-4-ylamino)-piperidin-1-yl]-2-oxo-1-phenyl-ethyl}-2-oxo-2,3-dihydro-1H-benzoimidazole-5-carbonitrile]",100 to 500 nM
15,"COc1ccc(S(=O)(=O)n2c(=O)n(C(C(=O)N3CCN(C4CCN(C)CC4)CC3)c3ccccc3)c3ccccc32)c(OC)c1 (stereo not shown) [Example 67, 1-(2,4-Dimethoxybenzenesulfonyl)-3-{2-[4-(1-methylpiperidin-4-yl)piperazin-1-yl]-2-oxo-1-phenylethyl}-1,3-dihydrobenzimidazol-2-one]",500 to 10000 nM
16,"COc1ccc(S(=O)(=O)n2c(=O)n(C(C(=O)N3CCN(c4ccncc4)CC3)c3ccccc3)c3cc(Cl)ccc32)cc1 (stereo not shown) [Example 58, 5-Chloro-1-(4-methoxybenzenesulfonyl)-3-[2-oxo-1-phenyl-2-(4-pyridin-4-ylpiperazin-1-yl)ethyl]-1,3-dihydrobenzimidazol-2-one]",< 100 nM
17,"COc1ccc(S(=O)(=O)n2c(=O)n(C(C(=O)N3CC[C@H](CN4CCNCC4)C3)c3ccccc3)c3cc(C#N)ccc32)cc1 (stereo partly drawn) [Example 226, 1-(4-Methoxy-benzenesulfonyl)-2-oxo-3-[2-oxo-1-phenyl-2-((R)-3-piperazin-1-ylmethyl-pyrrolidin-1-yl)-ethyl]-2,3-dihydro-1H-benzoimidazole-5-carbonitrile]",< 100 nM
18,"COc1ccc(S(=O)(=O)n2c(=O)n(C(C)C(=O)N3CCN(c4ccncc4)CC3)c3cc(Cl)ccc32)c(OC)c1 (stereo not shown) [Example 31, 5-Chloro-1-(2,4-dimethoxybenzenesulfonyl)-3-[1-methyl-2-oxo-2-(4-pyridin-4-ylpiperazin-1-yl)ethyl]-1,3-dihydrobenzimidazol-2-one]",100 to 500 nM
19,"COc1ccc(S(=O)(=O)n2c(=O)n(C(C(=O)NCc3ccccc3)c3ccccc3)c3cc(Cl)ccc32)cc1 (stereo not shown) [Example 100, N-Benzyl-2-[6-chloro-3-(4-methoxybenzenesulfonyl)-2-oxo-2,3-dihydrobenzimidazol-1-yl]-2-phenylacetamide]",500 to 10000 nM
20,"COc1ccc(S(=O)(=O)n2c(=O)n(C(C(=O)N(C)C)c3ccccc3)c3cc(Cl)ccc32)cc1 (stereo not shown) [Example 97, 2-[6-Chloro-3-(4-methoxybenzenesulfonyl)-2-oxo-2,3-dihydrobenzimidazol-1-yl]-N,N-dimethyl-2-phenylacetamide]",500 to 10000 nM
21,"COc1ccc(S(=O)(=O)n2c(=O)n(C(C(=O)N3CCC(N4CCN(C)CC4)CC3)c3ccccc3)c3cc(Cl)ccc32)cc1 (stereo not shown) [Example 64, 5-Chloro-1-(4-methoxybenzenesulfonyl)-3-{2-[4-(4-methylpiperazin-1-yl)piperidin-1-yl]-2-oxo-1-phenylethyl}-1,3-dihydrobenzimidazol-2-one]",100 to 500 nM
22,"COc1ccc(S(=O)(=O)n2c(=O)n(C(C(=O)N3CCN(c4ncncn4)CC3)c3ccccc3)c3cc(Cl)ccc32)cc1 (stereo not shown) [Example 89, 5-Chloro-1-(4-methoxybenzenesulfonyl)-3-[2-oxo-1-phenyl-2-(4-[1,3,5]triazin-2-ylpiperazin-1-yl)-ethyl]-1,3-dihydrobenzimidazol-2-one]",500 to 10000 nM
23,"CCCN1CCN(C2CCCN(C(=O)C(c3ccccc3)n3c(=O)n(S(=O)(=O)c4ccc(OC)cc4)c4ccc(Cl)cc43)C2)CC1 (stereo not shown) [Example 155, 5-Chloro-1-(4-methoxybenzenesulfonyl)-3-{2-oxo-1-phenyl-2-[3-(4-propylpiperazin-1-yl)piperidin-1-yl]ethyl}-1,3-dihydrobenzimidazol-2-one]",< 100 nM
24,"COc1ccc(S(=O)(=O)n2c(=O)n(C(C(=O)N3CC[C@@H](NC4CCNCC4)C3)c3ccccc3)c3cc(Cl)ccc32)cc1 (stereo partly drawn) [Example 176, 5-Chloro-1-(4-methoxybenzenesulfonyl)-3-{2-oxo-1-phenyl-2-[(R)-3-(piperidin-4-ylamino)pyrrolidin-1-yl]ethyl}-1,3-dihydrobenzimidazol-2-one]",< 100 nM
25,"COc1ccc(S(=O)(=O)n2c(=O)n(C(C(=O)N3CCN(C4CCN(C)CC4)CC3)c3ccccc3)c3ccccc32)cc1 (stereo not shown) [Example 60, 1-(4-Methoxybenzenesulfonyl)-3-{2-[4-(1-methylpiperidin-4-yl)piperazin-1-yl]-2-oxo-1-phenyl-ethyl}-1,3-dihydrobenzimidazol-2-one]",500 to 10000 nM
